Measured values from the supplement of paper PMC10307832.

Key:
MK-2206 = compound: NC1(c2ccc(-c3nc4ccn5c(=O)[nH]nc5c4cc3-c3ccccc3)cc2)CCC1 [MK-2206]; test: relative viability (nuclei count vs DMSO), 5 days (fraction); higher = more cells survive
How it was run: (§1)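 Viability is treated-well nuclei as a fraction of vehicle-well nuclei, reported as the median across plates. Before counting, lung cancer cell lines were kept overnight at 37 °C in 1536-well plates, pinned with five √10-spaced library-drug doses on vehicle-anchored plates, and left 5 days without medium change, then fixed, permeabilised and Hoechst-stained in one step, imaged at 4× and counted by MetaXpress. A plate passed only if control CV was below 25% and at least one doubling occurred.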

Pictilisib = compound: CS(=O)(=O)N1CCN(Cc2cc3nc(-c4cccc5[nH]ncc45)nc(N4CCOCC4)c3s2)CC1 [Pictilisib]; test: as above
How it was run: as §1

Cell Line | relative viability (MK-2206; 0.01 µM) | relative viability (MK-2206; 0.03162 µM) | relative viability (MK-2206; 0.3162 µM) | relative viability (MK-2206; 1 µM) | relative viability (Pictilisib; 0.02 µM) | relative viability (Pictilisib; 0.06325 µM) | relative viability (Pictilisib; 0.6325 µM) | relative viability (Pictilisib; 1 µM, anchor plate) | relative viability (Pictilisib; 2 µM)
NCI-H1944 | 1.03 | 1.01 | 0.965 | 0.987 | 1.15 | 0.879 | 0.595 | 0.354 | 0.32
NCI-H23 | 0.944 | 0.909 | 0.896 | 0.783 | 1.01 | 1.09 | 0.808 | 0.525 | 0.478
NCI-H1648 | 0.873 | 1.06 | 1.06 | 1.05 | 0.783 | 0.906 | 0.39 | – | 0.318
NCI-H522 | 0.916 | 1.01 | 0.885 | 0.696 | 1 | 1.05 | 0.768 | – | 0.648
HCC-366 | 1.02 | 1.02 | 0.978 | 0.98 | 0.986 | 1.02 | 0.851 | 0.159 | 0.448
EBC-1 | 0.986 | 1.01 | 0.819 | 0.29 | 0.943 | 1.14 | 0.868 | 0.409 | 0.272
ChaGo-K-1 | 1.02 | 1.14 | 0.968 | 0.866 | 1.04 | 1.02 | 0.893 | 0.783 | 0.815
LCLC-97TM1 | 0.941 | 1.05 | 0.968 | 0.829 | 0.928 | 0.932 | 0.791 | 0.199 | 0.217
NCI-H1299 | 1.02 | 1.02 | 1.04 | 1.01 | 1.06 | 1.05 | 1.06 | 0.773 | 0.991
EMC-BAC-2 | 0.95 | 0.959 | 0.926 | 0.871 | 1.21 | 1.04 | 0.727 | 0.555 | 0.565
NCI-H1623 | 0.957 | 1.07 | 0.946 | 0.914 | 0.962 | 0.94 | 0.664 | – | 0.341
NCI-H441 | 1.09 | 1.05 | 0.845 | 0.921 | 1.01 | 1.06 | 0.595 | 0.514 | 0.48
LCLC-103H | 0.923 | 0.984 | 0.982 | 1.11 | 1.05 | 0.984 | 0.707 | 0.625 | 0.663
HOP-62 | 0.91 | 1.08 | 0.993 | 0.918 | 1.04 | 1.07 | 0.97 | 0.743 | 0.941
NCI-H1793 | 0.979 | 1.04 | 0.887 | 0.743 | 0.864 | 0.956 | 0.539 | 0.343 | 0.359
NCI-H1355 | 0.977 | 0.997 | 0.9 | 0.788 | 0.977 | 1 | 0.918 | 0.461 | 0.588
COR-L23 | 1.01 | 1.05 | 1.03 | 0.99 | 1.14 | 1.1 | 1.03 | 0.807 | 0.763
HCC-44 | 0.967 | 1.01 | 0.989 | 0.723 | 1.03 | 0.975 | 0.991 | 0.612 | 0.644
A-427 | 1.04 | 1.06 | 0.981 | 0.974 | 1.1 | 1.07 | 0.921 | 0.698 | 0.74
